The assay relates to P388 leukemia ip, CD2F1 mice, survival T/C. The assay can be described thus: NCI In Vivo Anticancer Drug Screen. Data for tumor model P388 Leukemia (intraperitoneal) in CD2F1 (CDF1) mice. The note with it: endpoint: median survival time, higher = longer survival. In short, it runs like this: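 Mice carrying the transplanted tumor received test compound or vehicle. Survival was recorded in each group, and the value is the treated-group measurement divided by that of the vehicle-treated control group.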

The mark [1] stands for this setting: dose: 50.0 mg/kg/injection, schedule: Q01DX005 (ip), vehicle: saline with Tween-80.
Where [2] appears, read: dose: 100.0 mg/kg/injection, schedule: Q01DX005 (ip), vehicle: saline with Tween-80.
Setting [3] is: dose: 200.0 mg/kg/injection, schedule: Q01DX005 (ip), vehicle: saline with Tween-80.
Setting [4] is: dose: 3.12 mg/kg/injection, schedule: Q01DX009 (ip), vehicle: saline.
The mark [5] stands for this setting: dose: 6.25 mg/kg/injection, schedule: Q01DX009 (ip), vehicle: saline.
[6] abbreviates: dose: 12.5 mg/kg/injection, schedule: Q01DX009 (ip), vehicle: saline.
Setting [7] is: dose: 50.0 mg/kg/injection, schedule: Q01DX009 (ip), vehicle: saline with Tween-80.
Setting [8] is: dose: 100.0 mg/kg/injection, schedule: Q01DX009 (ip), vehicle: saline with Tween-80.
Setting [9] is: dose: 200.0 mg/kg/injection, schedule: Q01DX009 (ip), vehicle: saline with Tween-80.
Where [10] appears, read: dose: 12.5 mg/kg/injection, schedule: Q01DX005 (ip), vehicle: saline with Tween-80.
[11] abbreviates: dose: 25.0 mg/kg/injection, schedule: Q01DX005 (ip), vehicle: saline with Tween-80.

Where “and” joins values, the source holds several entries; their conditions need not be identical. Equal values may be shown once. Toxic doses and inconclusive results are not listed.

Turning to `CC(=O)Nc1cc2cc(NS(=O)(=O)c3cc(C(F)(F)F)cc(C(F)(F)F)c3)ccc2oc1=O`, the T/C reads like this: (dose: 1.5 mg/kg/injection, schedule: Q01DX005 (ip), vehicle: Klucel + Tween-80) 94 % of control; (dose: 3.0 mg/kg/injection, schedule: Q01DX005 (ip), vehicle: Klucel + Tween-80) 99 % of control and 91 % of control; (dose: 6.0 mg/kg/injection, schedule: Q01DX005 (ip), vehicle: Klucel + Tween-80) 96 % of control; (dose: 12.0 mg/kg/injection, schedule: Q01DX005 (ip), vehicle: Klucel + Tween-80) 91 % of control; (dose: 12.5 mg/kg/injection, schedule: Q01DX005 (ip), vehicle: Klucel + Tween-80) 87 % of control; (dose: 50.0 mg/kg/injection, schedule: Q01DX005 (ip), vehicle: Klucel + Tween-80) 95 % of control.

Take `COc1ccc2c(c1)C(Cc1ccc(Oc3cc(CC4c5cc(OC)ccc5CC[N+]4(C)C)ccc3OC)cc1)[N+](C)(C)CC2` (stereo not drawn): the T/C reads like this: (dose: 1.56 mg/kg/injection, schedule: Q04DX003 (ip), vehicle: water) 106 % of control; (dose: 3.13 mg/kg/injection, schedule: Q04DX003 (ip), vehicle: water) 102 % of control.

For `CC1(C)CCC23CCC4(C)C(CCC5C6(C)CCC(O)C(C)(C)C6CCC54C)C2C1OC3` (stereo not drawn), the T/C was 87 % of control (dose: 50.0 mg/kg/injection, schedule: Q01DX009 (ip), vehicle: Klucel (hydroxypropylcellulose) (HPC)); 87 % of control (dose: 100.0 mg/kg/injection, schedule: Q01DX009 (ip), vehicle: Klucel (hydroxypropylcellulose) (HPC)); 89 % of control (dose: 200.0 mg/kg/injection, schedule: Q01DX009 (ip), vehicle: Klucel (hydroxypropylcellulose) (HPC)).

Take `CC(c1ccccc1)N1COc2ccc3ccccc3c2C1` (stereo not drawn): the T/C by setting is: (dose: 100.0 mg/kg/injection, schedule: Q04DX003 (ip), vehicle: saline with Tween-80) 95 % of control; (dose: 200.0 mg/kg/injection, schedule: Q04DX003 (ip), vehicle: saline with Tween-80) 95 % of control; (dose: 400.0 mg/kg/injection, schedule: Q04DX003 (ip), vehicle: saline with Tween-80) 95 % of control.

On to `C[Si](C)(C)Cn1ccc(=O)n(C[Si](C)(C)C)c1=O`, for which the T/C is 107 % of control under setting [1], 101 % of control under setting [2] and 107 % of control under setting [3].

Regarding `CC[NH-].CC[NH-].[Cl][Pt+2][Cl]`, the T/C is 150 % of control under setting [4]; 116 % of control (dose: 3.12 mg/kg/injection, schedule: Q01DX009 (ip), vehicle: suspension in saline); 162 % of control under setting [5]; 159 % of control under setting [6]; 97 % of control (dose: 12.5 mg/kg/injection, schedule: Q01DX009 (ip), vehicle: suspension in saline).

With `CN(C)C(=S)SCN1CCCCC1`, the T/C was 100 % of control (dose: 6.25 mg/kg/injection, schedule: Q01DX009 (ip), vehicle: saline with Tween-80); 101 % of control (dose: 12.5 mg/kg/injection, schedule: Q01DX009 (ip), vehicle: saline with Tween-80); 100 % of control (dose: 25.0 mg/kg/injection, schedule: Q01DX009 (ip), vehicle: saline with Tween-80); 95 % of control under setting [7].

For the molecule `Cc1ccc(S(=O)(=O)N(C)C)cc1NC1=NCCO1`, the T/C was 95 % of control (dose: 50.0 mg/kg/injection, schedule: Q01DX001 (ip), vehicle: saline with Tween-80); 95 % of control (dose: 100.0 mg/kg/injection, schedule: Q01DX001 (ip), vehicle: saline with Tween-80); 100 % of control (dose: 200.0 mg/kg/injection, schedule: Q01DX001 (ip), vehicle: saline with Tween-80).

In the case of `CN(C)c1ccc(CN2CCCN(Cc3ccc(N(C)C)cc3)C2c2ccncc2)cc1`, the T/C was 100 % of control under setting [8]; 100 % of control under setting [9]; 100 % of control (dose: 400.0 mg/kg/injection, schedule: Q01DX009 (ip), vehicle: saline with Tween-80).

Consider `O=S(=O)(/C=C/c1ccc(F)cc1)Cc1ccccc1`, for which the T/C was 92 % of control under setting [1], 92 % of control under setting [2] and 90 % of control under setting [3].

On to `C/C(Cl)=C\c1nc2ccccc2nc1Cl`, for which the T/C runs as follows: (dose: 100.0 mg/kg/injection, schedule: Q01DX001 (ip), vehicle: Klucel (hydroxypropylcellulose) (HPC)) 100 % of control; (dose: 200.0 mg/kg/injection, schedule: Q01DX001 (ip), vehicle: Klucel (hydroxypropylcellulose) (HPC)) 92 % of control; (dose: 400.0 mg/kg/injection, schedule: Q01DX001 (ip), vehicle: Klucel (hydroxypropylcellulose) (HPC)) 92 % of control.

Regarding `OCc1ccc(Cl)cc1Cl`, the T/C is 104 % of control under setting [7], 95 % of control under setting [8] and 109 % of control under setting [9].

For the molecule `N=C1CCC(=N)c2c1c(O)c1ccccc1c2O`, the T/C runs as follows: (dose: 6.25 mg/kg/injection, schedule: Q01DX005 (ip), vehicle: saline with Tween-80) 94 % of control; under setting [10], 104 % of control; under setting [11], 94 % of control.

As for `O=c1[nH]c(=O)c2c(Cl)cccc2[nH]1`, the T/C by setting is: under setting [1], 93 % of control; under setting [2], 100 % of control; under setting [3], 91 % of control.

Consider `CC(C)[C@](O)(C(=O)OC1CCN2CCC(CO)C12)[C@H](C)O` (stereo partly drawn), for which the T/C is 111 % of control (dose: 11.5 mg/kg/injection, schedule: Q01DX009 (ip), vehicle: saline); 107 % of control (dose: 23.0 mg/kg/injection, schedule: Q01DX009 (ip), vehicle: saline); 105 % of control (dose: 46.0 mg/kg/injection, schedule: Q01DX009 (ip), vehicle: saline); 98 % of control (dose: 92.0 mg/kg/injection, schedule: Q01DX009 (ip), vehicle: saline).

Regarding `N#CC(C(=O)C(=O)Nc1cccc(C(F)(F)F)c1)c1c(Cl)cccc1Cl` (stereo not drawn), the T/C was 98 % of control under setting [1], 100 % of control under setting [2] and 100 % of control under setting [3].

Consider `O=C(O)CC(NC(=O)OCc1ccccc1)C(=O)OCc1ccccc1` (stereo not drawn), for which the T/C was 100 % of control under setting [7], 104 % of control under setting [8] and 104 % of control under setting [9].

In the case of `CC1(C)CCCC2(C)C1CCC1(C)OC(/C(C=O)=C/C=O)CC12` (stereo not drawn), the T/C runs as follows: (dose: 40.0 mg/kg/injection, schedule: Q01DX009 (ip), vehicle: Klucel (hydroxypropylcellulose) (HPC)) 112 % of control; (dose: 80.0 mg/kg/injection, schedule: Q01DX009 (ip), vehicle: Klucel (hydroxypropylcellulose) (HPC)) 105 % of control.

In the case of `O=C1C(=O)c2cccc([N+](=O)[O-])c2-c2ccccc21`, the T/C is 104 % of control and 106 % of control under setting [10]; 101 % of control and 115 % of control under setting [11]; 107 % of control and 118 % of control under setting [1]; 104 % of control (2×) and 95 % of control under setting [2].

For `O=C(O)Cc1cnc[nH]1`, the T/C was 100 % of control under setting [5]; 106 % of control under setting [6]; 97 % of control (dose: 25.0 mg/kg/injection, schedule: Q01DX009 (ip), vehicle: saline); 99 % of control (dose: 50.0 mg/kg/injection, schedule: Q01DX009 (ip), vehicle: saline).

For `CC1=C(C)C(=O)C(C(C)(C)CC(=O)N(C)/N=N/c2nc[nH]c2C(N)=O)=C(C)C1=O`, the T/C by setting is: under setting [2], 155 % of control; under setting [3], 174 % of control.

Take `COc1ccc(CCNC(=O)c2sc3ccccc3c2Cl)cc1OC`: the T/C (dose: 50.0 mg/kg/injection, schedule: Q01DX005 (ip), vehicle: Klucel (hydroxypropylcellulose) (HPC)) was 88 % of control; the T/C (dose: 100.0 mg/kg/injection, schedule: Q01DX005 (ip), vehicle: Klucel (hydroxypropylcellulose) (HPC)) is 91 % of control; the T/C (dose: 200.0 mg/kg/injection, schedule: Q01DX005 (ip), vehicle: Klucel (hydroxypropylcellulose) (HPC)) is 99 % of control.

In the case of `Clc1ncnc2ccccc12`, the T/C reads like this: under setting [1], 105 % of control; under setting [2], 89 % of control.

As for `CCC[CH2][Sn]([CH2]CCC)([N]=C=S)[N]=C=S`, the T/C (dose: 0.78 mg/kg/injection, schedule: Q01DX009 (ip), vehicle: saline) is 108 % of control; the T/C (dose: 1.56 mg/kg/injection, schedule: Q01DX009 (ip), vehicle: saline) was 100 % of control; the T/C under setting [4] was 100 % of control.

Turning to `COc1ccc(NC(=O)C(Cl)Cl)ccc1=O`, the T/C under setting [7] is 91 % of control.
